For assay [1], the system named is activity-based anorexia (ABA) mice. As to the kind of experiment: Activity-based anorexia (ABA) model. Type of assay: in vivo, mouse. From the text:
The importance of AgRP neurons in psychiatric conditions such as anorexia was further underscored by a recent report showing that chemogenetic activation of AgRP neurons in mice during ABA attenuated bodyweight loss with reduction in excessive physical activity (Hickey et al., 2022, Mol Psychiatry). […] Thus, peripubertal female mice were exposed to the ABA paradigm as previously described (Miletta, M. C. et al., 2020, Nature Metabolism, 2:1204-1211). Mice were singly housed at postnatal day 36 (P36) with ad libitum access to food, water, and a running wheel. After 4 days of acclimation at P40, mice were food restricted with free access to food for only 2 h daily for 3 days. At P40 and before the onset of food restriction, mice received first intraperitoneal (i.p.) injection of Bobcat339 or vehicle, with second and third injections performed at P47 and P54, respectively (FIG. 17A).
Bobcat339 powder (Sigma-Aldrich, SML2611) was freshly dissolved in DMSO (vehicle) at a concentration of 50 mg/mL and filtered through a 0.22 micron. It was further diluted with 1×PBS to a final concentration of 0.5 mg/mL before injections. Mice were injected intraperitoneally with Bobcat339 at 1 mg/kg, 2.5 mg/kg, or 4 mg/kg.
On P36, animals were single housed with free access to food and water and 24 h access to a running wheel. After 4 days of acclimation, on P40, all food was removed from the cage and returned only for 2 h daily (free food access from 19:00 to 21:00) and 24 h access to a running wheel for 3 days. On P43, 24 h ad libitum access to food was returned and the running wheel access was blocked to allow the animals to recover. The animals were allowed to recover for at least 1 week before undergoing behavioral testing. Continuous multiday analysis of running wheel activity was recorded using VitalView Data Acquisition System software version 5.1 (Starr Life Science). Food intake was measured after measurement of the food pellets before and after the 2 h food restriction. Body weight was monitored in the morning. Body composition was assessed using EchoMRI analysis.

In assay [2] the test system is TET3. As to the kind of experiment: TET3 protein in RAW 264.7 cells. It is filed as cell-based, mouse. Conditions: RAW 264.7, 10 μM, 24 h. The protocol:
For siRNA transfection in a 24-well plate scale of Raw 264.7 cells, 10 pmol of NT siRNA (AM4636, Ambion) or Tet3 siRNA (4390815/s101483, Ambion) was mixed with 100 μL of OPTI-MEM (Gibco, 31985-070) by gentle pipetting. In parallel, 3 μL of Lipofectamine RNAiMAX (Invitrogen, 13778-150) was mixed with 100 μL of OPTI-MEM by gentle pipetting. Following 5 min of incubation at RT, the two were combined and the resulting 200 μL of transfection solution was added to each well of cells. After 24 h of incubation at […] in a 5% humidified CO2 tissue culture incubator, 300 μL of growth media was added and incubation was continued until cell harvesting.
(§1) Bobcat339 Treatment of Cultured Cells Bobcat339 powder (Sigma-Aldrich, SML2611) was freshly dissolved in DMSO at a concentration of 5 mM and filtered through a 0.22 micron. Cells grown at a density of 80-90% were incubated in growth media with vehicle (DMSO) or Bobcat339 at a final concentration of 10 μM for 24 h, followed by RNA and protein extraction.
For TET3 expression restoration experiments, cells seeded in 24-well plates were infected with Ad-GFP or Ad-TET3 at 4000 gc/cell. Following 16 h of infection, vehicle or Bobcat339 were added at a final concentration of 10 μM. Protein and RNA were isolated 48 hours later and analyzed. […]

Assay [3] deals with TET3 mRNA. Put plainly: TET3 mRNA in THP-1 cells. As to conditions: THP-1, 10 μM, 24 h. Type of assay: cell-based, human. How it is done:
as §1
Total RNAs were extracted from cells using PureLink RNA Mini Kit. 0.5-1 μg total RNA was reverse transcribed to cDNA in a reaction volume of 20 μL using PrimeScript RT Reagent Kit. Real-time quantitative PCR was performed in a 15 μL reaction volume containing 0.5-1 μL of cDNA using SsoAdvanced Universal SYBR Green Supermix in a Bio-Rad iCycler. Gene expression levels were normalized against RPLP0.

The subject of assay [4] is TET3. As to the kind of experiment: TET3 protein in mouse peritoneal macrophages. It is filed as cell-based. Conditions: 10 μM. The protocol: For cultured mouse peritoneal macrophages, cells were primed with 30 ng/ml of TGF-β1 (R&D Systems, 7666-MB0-005) for 48 h (to increase TET3 expression) before Bobcat339 treatment. Bobcat339 (or DMSO) was added at a final concentration of 10 μM, followed by RNA and protein extraction at time points indicated in the figure legends.
Cells were homogenized in situ using a pipette tip in 2×SDS-sample buffer with 10% β-mercaptoethanol at RT followed by heating at 100 °C for 5 min with occasional vortexing. The samples were loaded onto a 4-15% gradient SDS gel (Bio-rad, 456-8086) (10 μL/well) and transferred to nitrocellulose membranes, followed by Western blot analysis. The antibodies used were anti-TET3 (diluted at 1:1000, GeneTex, GTX121453 for human; diluted at 1:1000, Active Motif, 61395 for mouse), anti-TET2 (diluted at 1:1000, Proteintech, 21207-1-AP for human/mouse), anti-TGF-β1 (diluted at 1:1000, Abcam, ab215715 for human), anti-Lin28A (diluted at 1:1000, Cell Signaling, 3978S), and HRP-conjugated anti-GAPDH (dilution 1:5000; Proteintech, HRP-60004). The secondary antibody was HRP-linked Anti-rabbit IgG (dilution 1:10,000; Rockland, 611-1322).

“Also recorded” adds a separate entry of the source.

With `Nc1nc(=O)n(-c2cccc(-c3ccccc3)c2)cc1Cl` [Bobcat339, 4-Amino-1-[1,1′-biphenyl]-3-yl-5-chloro-2(1H)-pyrimidinone], the “lethality in the ABA model” value in assay [1] (ABA) is “diminished lethality”. For the same molecule, the “body weight, daily food intake, and running wheel account” value in assay [1] (ABA, acclimation) was “no differences”. Also, in assay [1] (ABA, food restriction), the body weight entry is listed as “able to maintain their body weight throughout the experiment”, the food intake result was “increased feeding; also recorded: a significant increase in food intake” and the wheel running result was “decreased compulsive running; also recorded: decline in compulsive wheel running”. In assay [1] (end of the recovery period), the body composition result was “No differences in body composition”. Also, the “onset of appetite-stimulating and anti-stress effects” value in assay [1] (i.p.) was at most 24 h. In assay [1] (single i.p. injection), the “duration of appetite-stimulating and anti-stress effects” value is on record as “lasted for at least one week”. Besides, in assay [1] (summary), the “therapeutic effect in a mouse model of anorexia” value was “elicited therapeutic effects in a mouse model of anorexia”. The TET3 protein level result in assay [2] is “decreased the levels of TET3 protein; also recorded: decreased the level of TET3; also recorded: a decrease in TET3 at the protein level”. Moreover, the “TET3 mRNA” value in assay [3] is on record as “no significant difference in expression between the groups”. Besides, in assay [4], the TET3 protein entry is given as “downregulated”.

Values taken from patent publication US20260355199A1, “COMPOSITIONS AND METHODS FOR TREATING OR PREVENTING NONALCOHOLIC STEATOHEPATITIS (NASH), ANOREXIA, DEPRESSION, ENDOMETRIOSIS, AND OTHER DISEASES OR DISORDERS” (priority 2022, published 2026).
